The NIST ThermoML archive (doi:10.1016/j.jct.2015.02.019)

Assays:
[1] = 298.15 K; 100 kPa; Liquid; Vibrating tube method
[2] = refractive index (Na D-line) (dimensionless); conditions: 298.15 K; 101.33 kPa; Liquid; Standard Abbe refractometry
[3] = xn = mol fraction of the nth substance listed; conditions: 298.15 K, 100 kPa, Liquid, Vibrating tube method
[4] = excess molar enthalpy (molar enthalpy of mixing); xn = mol fraction of the nth substance listed; conditions: 298.15 K, 100 kPa, Liquid, Calvet calorimetry

COC=O [methyl methanoate]
Conditions | mass density [kg/m3] | refractive index
[1] | 966.28 | –
[2] | – | 1.3411

COC=O [methyl methanoate] + CO
Conditions | excess molar enthalpy, [4] [kcal/mol] | mass density, [3] [kg/m3]
x1 = 0.02 | 0.0179 | –
x1 = 0.0337 | – | 795.73
x1 = 0.0487 | 0.0428 | –
x1 = 0.0833 | 0.0743 | 808.8
x1 = 0.1225 | 0.105 | –
x1 = 0.1557 | – | 826.74
x1 = 0.167 | 0.138 | –
x1 = 0.19 | – | 834.77
x1 = 0.2135 | 0.168 | –
x1 = 0.2499 | – | 848.14
x1 = 0.2613 | 0.195 | –
x1 = 0.3086 | 0.218 | –
x1 = 0.3219 | – | 863.26
x1 = 0.3501 | 0.236 | –
x1 = 0.3644 | 0.241 | –
x1 = 0.3906 | – | 876.73
x1 = 0.3943 | 0.252 | –
x1 = 0.4077 | 0.257 | –
x1 = 0.4572 | 0.27 | –
x1 = 0.4946 | – | 895.61
x1 = 0.5127 | 0.282 | –
x1 = 0.5416 | – | 903.58
x1 = 0.5783 | 0.286 | –
x1 = 0.646 | 0.282 | –
x1 = 0.6467 | – | 920.31
x1 = 0.7178 | 0.264 | –
x1 = 0.7271 | – | 932.1
x1 = 0.7815 | – | 939.62
x1 = 0.7842 | 0.235 | –
x1 = 0.8517 | 0.193 | –
x1 = 0.8533 | – | 949.01
x1 = 0.8968 | – | 954.39
x1 = 0.9098 | 0.14 | –
x1 = 0.9357 | – | 959.02
x1 = 0.9505 | 0.081 | –
x1 = 1 | – | 966.28

COC=O [methyl methanoate] + CCCCC(=O)OC
Conditions | mass density [kg/m3]
[3], x2 = 0 | 966.28

CCCCC(=O)OC [methyl pentanoate] + COC=O
Conditions | excess molar enthalpy [kcal/mol] | mass density [kg/m3]
[3], x1 = 0.0555 | – | 956.19
[3], x1 = 0.104 | – | 948.47
[3], x1 = 0.1464 | – | 942.39
[3], x1 = 0.2093 | – | 934.27
[3], x1 = 0.2537 | – | 929.22
[3], x1 = 0.3106 | – | 923.46
[3], x1 = 0.3493 | – | 919.84
[3], x1 = 0.4011 | – | 915.46
[3], x1 = 0.4572 | – | 911.17
[3], x1 = 0.5 | – | 908.17
[3], x1 = 0.5539 | – | 904.69
[3], x1 = 0.6081 | – | 901.55
[3], x1 = 0.6522 | – | 899.15
[3], x1 = 0.7258 | – | 895.5
[3], x1 = 0.7765 | – | 893.24
[3], x1 = 0.836 | – | 890.8
[3], x1 = 0.9031 | – | 888.23
[3], x1 = 1 | – | 884.78
[4], x1 = 0.0272 | 0.0141 | –
[4], x1 = 0.0583 | 0.0268 | –
[4], x1 = 0.0932 | 0.0409 | –
[4], x1 = 0.1292 | 0.055 | –
[4], x1 = 0.172 | 0.0696 | –
[4], x1 = 0.2104 | 0.0813 | –
[4], x1 = 0.2533 | 0.0906 | –
[4], x1 = 0.2946 | 0.0958 | –
[4], x1 = 0.3096 | 0.0987 | –
[4], x1 = 0.3486 | 0.101 | –
[4], x1 = 0.3982 | 0.103 | –
[4], x1 = 0.4522 | 0.103 | –
[4], x1 = 0.5232 | 0.0978 | –
[4], x1 = 0.6056 | 0.0875 | –
[4], x1 = 0.6943 | 0.0727 | –
[4], x1 = 0.7968 | 0.0523 | –
[4], x1 = 0.8656 | 0.0347 | –
[4], x1 = 0.93 | 0.0201 | –

CCCCC(=O)OC [methyl pentanoate]
Conditions | mass density [kg/m3] | refractive index
[1] | 884.78 | –
[2] | – | 1.3952

CO [methanol]
Conditions | mass density [kg/m3] | refractive index
[1] | 786.4 | –
[2] | – | 1.3261

CO [methanol] + COC=O
Conditions | mass density [kg/m3]
[3], x2 = 0 | 786.4

CCCCC(=O)OC [methyl pentanoate] + CO
Conditions | excess molar enthalpy [kcal/mol] | mass density [kg/m3]
[3], x1 = 0.0235 | – | 793.56
[3], x1 = 0.062 | – | 803.85
[3], x1 = 0.0741 | – | 806.78
[3], x1 = 0.1314 | – | 818.95
[3], x1 = 0.1512 | – | 822.61
[3], x1 = 0.2017 | – | 830.95
[3], x1 = 0.248 | – | 837.51
[3], x1 = 0.304 | – | 844.36
[3], x1 = 0.3501 | – | 849.28
[3], x1 = 0.4499 | – | 858.16
[3], x1 = 0.5121 | – | 862.75
[3], x1 = 0.6073 | – | 868.69
[3], x1 = 0.6865 | – | 872.86
[3], x1 = 0.7472 | – | 875.67
[3], x1 = 0.7884 | – | 877.42
[3], x1 = 0.7982 | – | 877.81
[3], x1 = 0.8786 | – | 880.85
[3], x1 = 0.963 | – | 883.66
[3], x1 = 1 | – | 884.78
[4], x1 = 0.0244 | 0.0198 | –
[4], x1 = 0.0512 | 0.0404 | –
[4], x1 = 0.0839 | 0.0662 | –
[4], x1 = 0.1195 | 0.0915 | –
[4], x1 = 0.1562 | 0.116 | –
[4], x1 = 0.192 | 0.138 | –
[4], x1 = 0.2279 | 0.159 | –
[4], x1 = 0.264 | 0.176 | –
[4], x1 = 0.2993 | 0.196 | –
[4], x1 = 0.3336 | 0.209 | –
[4], x1 = 0.367 | 0.22 | –
[4], x1 = 0.3861 | 0.226 | –
[4], x1 = 0.4156 | 0.237 | –
[4], x1 = 0.4625 | 0.252 | –
[4], x1 = 0.5081 | 0.261 | –
[4], x1 = 0.5867 | 0.262 | –
[4], x1 = 0.6887 | 0.24 | –
[4], x1 = 0.7931 | 0.194 | –
[4], x1 = 0.8868 | 0.127 | –
[4], x1 = 0.957 | 0.0574 | –

CO [methanol] + CCCCC(=O)OC
Conditions | mass density [kg/m3]
[3], x2 = 0 | 786.4
